Measured values: patent US8039483B2, “Quinuclidine carbonate salts and medicinal composition thereof” (Chiesi Farmaceutici S.p.A., priority 2008, dated 2011)

Tests used:
[1] = Plasma stability in human plasma; type: in vitro ADME; conditions: 37° C.
Method: (§1) Briefly 10 μl of a stock solution 250 μM of compound 1 in acetonitrile were added to 1 ml of rat and human plasma, and samples were incubated at 37° C. Plasma (50 μL) was taken after 0, 1 and 5 hours of incubation and added to 140 μl of acetonitrile with addition of verapamil as internal standard (250 ng/ml). Samples were analysed by HPLC-MS/MS analysis.
(§2) Plasma stability was calculated as percentage remaining after 1 and 5 hours by dividing the peak area at 1 or 5 hours by the area of the peak at time 0. […] The other compounds of the invention behave similarly.

[2] = Plasma stability in rat plasma; type: in vitro ADME; conditions: 37° C.
Method: as §1, §2

Measured: plasma stability, percentage remaining

O=C(OC(c1cccc(F)c1)c1cccc(F)c1)O[C@H]1C[N+]2(CC(=O)c3cccs3)CCC1CC2.[Cl-] [Compound 1, (R)-3-[Bis-(3-fluoro-phenyl)-methoxycarbonyloxy]-1-(2-oxo-2-thiophen-2-yl-ethyl)-1-azonia-bicyclo[2.2.2]octane; chloride]
less than 2%: [1]; after 1 hour of incubation | [1]; after 5 hours of incubation | [2]; after 1 hour of incubation | [2]; after 5 hours of incubation
